Biological target: human iNKT‐cell TCR (Homo sapiens, UniProt A0A0B4J240+P15813)
Assay: SPR (BIAcore) binding of soluble human iNKT‐cell TCR to hCD1d/lipid complexes
Protocol: Two analogs of ThrCer, ThrCer 6, and ThrCer 7 were synthesized. […] We first carried out measurements to assess the binding affinity of these ThrCer analogs to human iNKT‐cell TCR (Fig. 1B). Recombinant human CD1d (hCD1d) molecules were refolded in vitro with ThrCer 6 and ThrCer 7 separately and coupled to BIAcore chips, over which refolded human iNKT‐cell TCR was injected at different concentrations 34. […] Importantly, these findings were consistent with data obtained using tetrameric human iNKT‐cell TCRs as a staining reagent to identify lipid/CD1d complexes on the surface of C1R cells that had been transfected with hCD1d cDNA (hCD1d C1R cells) and subsequently loaded with the different lipids 34 (Fig. 1C).
Soluble human invariant TCR was generated as previously described 34 where both the Vα24 and Vβ11 chains were individually overexpressed in Escherichia coli, purified from the inclusion bodies, then refolded, and purified to generate the TCR heterodimers, according to Boulter et al. 43. The murine TCR was generated according to Pellici et al. as a chimeric molecule (with variable murine regions and human constant regions) 44. The hybrid alpha chains and beta chains were individually expressed in E. coli and purified from the inclusion bodies, then refolded as above.
SPR experiments were performed with a BIAcore 3000 to measure the affinity and kinetics of iNKT‐cell TCR binding to human CD1d–ligand complexes. In brief, approximately 1000 RU of the biotinylated hCD1d–lipid complexes were immobilized onto streptavidin‐coated CM5 sensor chips (BIAcore). Aliquots of purified TCR with increasing concentrations were passed over immobilized hCD1d–lipid complex at a flow rate of 10 μL/min for the equilibrium‐binding experiments or 50 μL/min for the kinetics experiments. The dissociation constants, K d, were calculated by fitting the data from the equilibrium‐binding experiment to a non‐linear regression saturation binding model (GraphPad Prism 5.0), whereas the k off data were estimated from the kinetics experiments by fitting the data with the built‐in models of the BIAeval3.1 software (BIAcore).

Chain of human iNKT‐cell TCR (P01848 1-93): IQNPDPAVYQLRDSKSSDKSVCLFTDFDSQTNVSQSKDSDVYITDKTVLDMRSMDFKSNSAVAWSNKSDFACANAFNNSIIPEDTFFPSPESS
Chain of human iNKT‐cell TCR (P61769 21-119, further chain): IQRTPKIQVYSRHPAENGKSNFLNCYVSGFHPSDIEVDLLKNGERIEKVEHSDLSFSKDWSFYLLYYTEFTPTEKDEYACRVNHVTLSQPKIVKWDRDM
Chain of human iNKT‐cell TCR (A0A0B4J240 22-114): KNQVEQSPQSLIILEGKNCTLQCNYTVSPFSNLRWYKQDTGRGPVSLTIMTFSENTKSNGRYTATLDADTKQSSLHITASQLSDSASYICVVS
Chain of human iNKT‐cell TCR (P01850 1-129, further chain): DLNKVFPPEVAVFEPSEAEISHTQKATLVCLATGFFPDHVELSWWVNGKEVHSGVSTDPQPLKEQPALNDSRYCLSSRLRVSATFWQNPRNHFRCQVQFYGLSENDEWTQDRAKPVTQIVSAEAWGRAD
Chain of human iNKT‐cell TCR (P15813 20-301): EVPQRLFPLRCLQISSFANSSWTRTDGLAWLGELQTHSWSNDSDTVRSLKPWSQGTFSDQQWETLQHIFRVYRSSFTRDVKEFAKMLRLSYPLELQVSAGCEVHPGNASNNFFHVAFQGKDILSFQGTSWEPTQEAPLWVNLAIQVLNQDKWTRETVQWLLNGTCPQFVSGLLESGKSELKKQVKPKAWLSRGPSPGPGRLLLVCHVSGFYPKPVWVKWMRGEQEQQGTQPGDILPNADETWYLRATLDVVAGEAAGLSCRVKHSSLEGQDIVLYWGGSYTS

Which results are given for CCCCCCCCCCCCCCCCCCCCCCCCCC(=O)N[C@@H](COC[C@H](O)[C@@H](O)CO)[C@H](O)[C@H](O)CCCCCCCCCCCCCC [ThrCer, threitolceramide, reference compound]?
Kd (SPR equilibrium binding, hCD1d refolded with lipid, read-out: K d, human iNKT‐cell TCR binding to hCD1d/lipid complex): 3.15 µM; koff (SPR kinetics experiment, read-out: k off, human iNKT‐cell TCR from hCD1d/lipid complex): 0.114 s⁻¹

From publication PMC4913735, “Non‐glycosidic compounds can stimulate both human and mouse iNKT cells” (European Journal of Immunology, 2016)
